{"source": "patent US12448705B2", "about": "“Bacteriophage compositions and methods of selection of components against specific bacteria” (priority 2016, dated 2025)", "format_in_all_cases": "cell-based", "key": {"A. baumannii isolate": {"test_system": "A. baumannii isolate", "experiment": "Minocycline susceptibility of patient's isolate", "settings": "day 115, previously obtained isolate"}, "A. baumannii strain TP3 [1]": {"test_system": "A. baumannii strain TP3", "experiment": "Checkerboard assay, phage cocktail and minocycline", "settings": "Acinetobacter baumannii, TP3, read-out: Minimal Inhibition Concentration (MIC)"}, "A. baumannii strain TP3 [2]": {"test_system": "A. baumannii strain TP3", "experiment": "Minocycline ETEST", "settings": "Acinetobacter baumannii, TP3, read-out: IC50 of A. baumannii strain TP3 to minocycline by ETEST", "protocol": "For example, this assay was performed in order to better understand the interaction between the phage cocktail and minocycline administered in combination to the patient discussed in Example 5. Specifically, each well of a 96 well plate contained tryptic soy media with 1% tetrazolium dye (v/v) for bacterial growth media. […] The wells with antibiotics were then serially diluted 1:1 from row A down to row F. Phage were then added to each well starting at 10^7 pfu per well in column 1 and then serially diluted 1:10 across from column 1 to 6. All wells were then inoculated with approximately 10^4 cfu of bacteria per well. This design allows for antibiotic dilutions going down the columns and dilutions of phage going across the rows. Columns 7 and 8 represent antibiotic control wells and rows G and H represent phage control wells. However, wells G7, G8, H7, and H8 represent bacteria only control wells. […] The IC50 of A. baumannii strain TP3 to minocycline by ETEST (bioMerieux USA, Durham, NC) was 4 μg/mL."}, "[3]": {"test_system": "meropenem^R K. pneumoniae 4640", "experiment": "Phage efficacy assay with meropenem and phage", "settings": "alone; meropenem 4 μg/ml; phage MOI 100; 48 hours at 37° C.", "protocol": "The assay is based on the interaction between lytic phage and bacteria in a liquid environment. In this liquid assay system, tetrazolium dye is added with media. During active growth of bacteria, cellular respiration reduces the tetrazolium dye and produces a color change that is captured by a camera. In this system as many as 400 phage efficacy assays in the presence of a targeted bacterium can be performed simultaneously but separately, thus allowing monitoring of the kinetics of bacterial growth and the development of resistance over the course of the experiment. The interpretation of such phage-bacterial interaction data in liquid environment permits the selection of phages that are highly virulent against the given bacteria, evidenced by a hold-time of at least 4 hours. Further selection of these phages for cocktail preparation is evaluated using the same liquid assay in the presence of various mixtures of these virulent phages.\nUsing the phage efficacy assay described in Example 1, 10^4 cfu of meropenem^R K. pneumoniae was grown at 37° C. for 48 hours in the following conditions: (a) alone; (b) meropenem or phage (MOI 100); and (c) meropenem and varying MOIs of phage (MOI 0.01-100). The concentration of meropenem used for the indicated cultures was 4 μg/ml. […] The readout of this assay is bacterial growth hold-time."}, "[4]": {"test_system": "vancomycin-resistant E. faecalis (VRE)", "experiment": "microbe, parasite or virus in culture", "description": "A culture of VRE was first grown in tryptic soy broth (Remel Cat #R455054) to an Optical Density (OD) of 0.5 at 600 nm. Tryptic soy with tetrazolium dye D (BioLog Cat #74224) was added to a 1% v/v ratio and then sterilized through a 0.22 μm filtration unit (Millipore Cat #SCGP00525). VRE stock phage was serially diluted in tryptic soy broth with dye in separate Eppendorf tubes to a final concentration of 10^7 pfu/ml. Vancomycin (Sigma, Cat #SBR00001-10 ml) was diluted separately in tryptic soy broth with tetrazolium dye to a concentration equal to 4 times the Minimal Inhibition Concentration (MIC) for the bacteria being used.\nBriefly, microtiter plates for the phage-antibiotics synergy assay were prepared as follows. Tryptic soy broth with dye was added to the plate first. Next 50 μl of tryptic soy with tetrazolium dye was added to each well. […] The wells with Vancomycin were serially diluted 1:1 from row A down to row F. Phage were added to each well starting at 10^7 pfu/well in column 1 and then serially diluted 1:10 across from column 1 to 6. Individual phage was added at an MOI of 100. Finally all wells were inoculated with approximately 10^4 cfu of E. faecalis bacteria per well. […] The color change of all plates was recorded every 15 minutes over the course of the 48 hour incubation period."}}, "data": [{"compound": "CN(C)c1ccc(O)c2c1C[C@H]1C[C@H]3[C@H](N(C)C)C(O)=C(C(N)=O)C(=O)[C@@]3(O)C(O)=C1C2=O", "note": "[minocycline]", "values": [{"measurement": "concentration at which isolate found susceptible", "setting": "A. baumannii isolate", "result": 3, "unit": "µg/mL"}, {"measurement": "MIC", "setting": "A. baumannii strain TP3 [1]", "result": 32, "unit": "µg/mL"}, {"measurement": "IC50", "setting": "A. baumannii strain TP3 [2]", "result": 4, "unit": "µg/mL"}]}, {"compound": "C[C@@H](O)[C@H]1C(=O)N2C(C(=O)O)=C(S[C@@H]3CN[C@H](C(=O)N(C)C)C3)[C@H](C)[C@H]12", "note": "[meropenem]", "values": [{"measurement": "hold-time", "setting": "[3]", "result": "approximately 6 hours"}]}, {"compound": "CN[C@H](CC(C)C)C(=O)N[C@H]1C(=O)N[C@@H](CC(N)=O)C(=O)N[C@H]2C(=O)N[C@H]3C(=O)N[C@H](C(=O)N[C@H](C(=O)O)c4cc(O)cc(O)c4-c4cc3ccc4O)[C@H](O)c3ccc(c(Cl)c3)Oc3cc2cc(c3O[C@@H]2O[C@H](CO)[C@@H](O)[C@H](O)[C@H]2O[C@H]2C[C@](C)(N)[C@H](O)[C@H](C)O2)Oc2ccc(cc2Cl)[C@H]1O", "note": "[Vancomycin]", "values": [{"measurement": "delay of bacterial growth", "setting": "[4]; 10^4 cfu per well, phage MOI of 100, vancomycin 16 μg/ml, 48 hours at 37° C., FIG. 25", "result": "up to 18 hours"}, {"measurement": "MIC", "setting": "[4]; Enterococcus faecalis, VRE, read-out: minimal inhibitory concentration for E. faecalis", "result": 16, "unit": "µg/mL"}]}]}
